Reference: patent US20080200345A1, “HIGH THROUGHPUT METHOD TO IDENTIFY LIGANDS FOR CELL ATTACHMENT” (priority 2003, published 2008)

System: MC3T3-E1 cells
Assay: ECM screen: adhesion of MC3T3-E1 osteoblast cells to immobilized adhesion ligands (nuclei count)
Assay type: cell-based
Settings: best factors approach
Text: A statistical design was developed with special consideration of the surface chemistry requirements. In particular, in this experiment the scenario shown in FIG. 6 was used, wherein the overall adhesion ligand density was kept constant from well to well and only the adhesion ligand composition was allowed to change. In other words, the concentration of a single adhesion ligand could be different from well to well, but each well has the same amount of adhesion ligand immobilized overall. This scenario is further described above. An example of such design is shown in the spreadsheet in FIG. 7. The top row in FIG. 7 lists the 10 cell adhesion ligands used in this particular screen. The first column is a list of the experimental points that translate into a well in the 96-well plate, e.g., 52 wells in this case. The numbers in the spreadsheet are the actual volumes (in µL) of factor that is added to a particular well. In this particular design, factors get added to the wells at three volumes, e.g., 5 µL, 25 µL, or 50. mu.L. The total well volume in this case is 50 µL. Thus, for wells where one factor is added at 50 µL, the final well composition will comprise a single adhesion ligand covalently immobilized on the well surface. Accordingly, if 25 µL of a factor is added to a well, a second factor is added at 25 µL also, and the final well composition will comprise a mixture of two different cell adhesion ligands covalently immobilized on the well surface. When 5 µL of a factor are added, nine other factors are added at 5 µL each, as well, thus resulting in wells that comprise a mixture of all 10 cell adhesion ligands on the well surface. These experimental points containing all 10 adhesion ligands are called “mid points” and are an integral part of the statistical design in this example.
With reference now to FIG. 8, a 96-well plate layout is shown, which was translated from the particular statistical design shown in FIG. 7. In particular, the 96-well plate includes the well compositions indicated in FIG. 7, e.g., cell adhesion ligand combinations immobilized at the bottom of each well. In particular, the experimental runs in FIG. 7 correspond to rows/columns in FIG. 8, as follows: runs 1-10 in the design in FIG. 7 represent row B, columns 2-11, respectively on the plate layout in FIG. 8; runs 11-20 represent row C, columns 2-11; runs 21-30 represent row D, columns 2-11; runs 31-40 represent row E, columns 2-11; runs 41-50 represent row F, columns 2-11 and runs 51 and 52 represent row G, columns 2 and 3, respectively. As shown by the statistical design in FIG. 7 and the corresponding 96-well plate layout in FIG. 8, it is an embodiment of the present invention that, in addition to mixtures of agents, single agents can be placed in the receptacles. […]

Substance	Effect on cell count, mixture-model analysis (Ln(cell count-10% serum+1) vs. deviation from reference blend, FIG. 12)	Effect on cell count, mixture-model analysis (Ln(cell count-no serum+1) vs. deviation from reference blend, FIG. 11)
poly-L-lysine	diminishes	marginal effect
laminin	positive effect	increase the cell count
